Test results taken from patent US20240277603A1, “COSMETIC USE OF AN OILY EXTRACT FROM DISTILLATION RESIDUE OF IMMORTELLE AS A SKIN BRIGHTENING AGENT” (LABORATOIRES M&L, priority 2021, published 2024).

Legend:
mouse B16 melanocytes [1] = assay: Inhibition of melanin production by NDP-MSH-stimulated B16 melanocytes (melanin assay, absorbance at 405 nm); assay type: cell-based; conditions: for inhibition of pigmentation (melanin production): Example 3, FIG. 3, B16 + NDP-MSH, extract 0.035%, hexylresorcinol 5 μg/mL, alone or combined, kojic acid and vitamin C positive controls; for efficacy as positive control for pigmentation inhibition (melanin production): Example 2, FIGS. 1 and 2, B16 + 0.1 μM NDP-MSH, 72 h, kojic acid 3 mM, vitamin C (ascorbyl glucoside) 0.5%, ***p<0.001, ****p<0.0001
Experimental: All the conditions were tested in triplicate.
For the melanin assay, the medium in each well was aspirated and the cells lyzed by adding 50 μl of 1M NaOH to the cell lawn. The plates were shaken for 30 minutes at room temperature, and the lyzate was then transferred to glass flasks and incubated overnight at 95° C. After incubation, the lyzates were centrifuged at 2000 rpm to remove the cell debris. The absorbance of the supernatant was read at 405 nm, reflecting the amount of melanin in each well, and the average of the three replicates was determined for each condition. A well of cells not treated with NDP-MSH was used as a control, and its OD value subtracted from all the OD values of the other wells. The percentage of melanin inhibition was then calculated according to the formula:
100−((melanin amount in test condition/melanin amount in untreated control)×100)
The significance of the results was evaluated using a one-way Anova test (for the distillation residue extract and the oily extract of flowering tops) or Student's t test (for kojic acid and vitamin C).
The results were compared with the effect obtained with the extract according to the invention alone and hexylresorcinol alone, used at the same doses.

mouse B16 melanocytes [2] = conditions: Example 3, preliminary cytotoxicity study on the cells
Experimental: Melanocytes (mouse line B16) were seeded in 96-well plates at 2000 cells per well in phenol red-free DMEM medium containing 10% fetal calf serum, 2 mM glutamine, 1 mM sodium pyruvate and 100 μg/ml normocin. The following day, the cells were treated with 0.1 μM of NDP-MSH to induce pigmentation. Under the test conditions, in the presence of NDP-MSH, kojic acid at 3 mM and vitamin C (ascorbyl glucoside) at 0.5% were used as positive controls for pigmentation inhibition, and the extracts to be evaluated were tested at several concentrations. All the conditions were tested in triplicate. The cells were incubated at 37° C., 5% CO2 for 72 h in the presence of the extracts and positive controls.

Row | SMILES | inhibition of pigmentation (melanin production) (mouse B16 melanocytes [1]) | maximum non-cytotoxic dose (mouse B16 melanocytes [2]) [µg/mL] | efficacy as positive control for pigmentation inhibition (melanin production) (mouse B16 melanocytes [1])
1 | CCCCCCc1ccc(O)cc1O [hexylresorcinol, 4-hexyl-1,3-phenylenediol] | confirms the depigmenting efficacy | 10 | –
2 | O=c1cc(CO)occ1O [kojic acid] | demonstrating the efficacy | – | demonstrating the efficacy
3 | O=C1O[C@H]([C@@H](O)CO)C(O)=C1O[C@H]1O[C@H](CO)[C@@H](O)[C@H](O)[C@H]1O [vitamin C, ascorbyl glucoside] | demonstrating the efficacy | – | demonstrating the efficacy
